Experimental data as given in patent US9845311B2, “Nrf2 activating compounds and uses thereof” (RIGEL PHARMACEUTICALS, INC., priority 2016, dated 2017).
Structures can show the parent of a compound that is named as a salt.

How the values were obtained:
[1] = Glutathione depletion assay (Michael addition to reduced glutathione, followed by 1H NMR); assay type: physicochemical; conditions: 2 equiv. reduced glutathione, d6-DMSO, 35° C.
Excerpt: See, for example, Lehmann et al. Dimethyfumarate Induces Immunosuppression via Glutathione Depletion and Subsequent Induction of Heme Oxygenase 1, Journal of Investigative Dermatology (2007) 127, 835-845. Accordingly, the present compounds may be assessed in vitro by reaction with glutathione as follows:
(with the top securely fastened).
In all the above cases, dis-appearance of the alkene proton signals from the starting material are used to determine the extent of Michael reaction with glutathione.
As would be understood by those of skill in the art, the above experiments can be repeated by varying the equivalents of reduced glutathione (0.5 to 2 equivalents); the reactions can also be run in a mixture of d6-DMSO and D2O; and the temperature of the reaction can also be varied from room temperature to 35° C. (35° C. being used to mimic body temperature). As used herein “majority reaction” means a greater than 50% reduction in alkene proton signal as observed by ^1H NMR.

[2] = tested on: experimental autoimmune encephalomyelitis (EAE); experiment: Experimental autoimmune encephalomyelitis (EAE) animal model; assay type: in vivo, mice; conditions: dosed at 60 mg/kg beginning on the day of immunization
[3] = tested on: NrF2 (Nuclear factor (erythroid-derived 2)-like 2); experiment: NrF2 activation in a whole cell nuclear translocation assay; assay type: cell-based
Procedure: Compounds are tested in a NrF2 (Nuclear factor (erythroid-derived 2)-like 2) translocation assay by adapting the methods set forth in U.S. Pat. No. 8,101,373, the disclosure of which is incorporated herein by reference. A result of NrF2 activation in the assay by the present compounds is an indication of their anti-inflammatory activity. […] In addition to monomethyl fumarate and dimethyl fumarate, bardoxolone methyl may be used as a positive control.

Row | SMILES | time to majority reaction with glutathione (greater than 50% reduction in alkene proton signal by 1H NMR) [1] [h] | onset of disease paralysis [2] | EC50 [3] [µM]
1 | COC(=O)/C=C/n1nn[nH]c1=O [methyl (E)-3-(5-oxo-4,5-dihydro-1H-tetrazol-1-yl)acrylate] | ≤ 30 | significantly prevents the onset of disease paralysis | –
2 | COC(=O)/C=C/C(=O)O [Monomethyl fumarate, monomethylfumarate] | – | – | ~127
3 | COC(=O)/C=C/n1nnn(C)c1=O [methyl (E)-3-(4-methyl-5-oxo-4,5-dihydro-1H-tetrazol-1-yl)acrylate] | ≤ 30 | – | –
